Assay results published in patent US20080075796A1, “Compositions and Methods for Controlling Insects” (TyraTech, Inc., priority 2003, published 2008).

What was measured:
[1] = tested on: Drosophila melanogaster Or83b olfactory receptor, SEQ ID NO: 6; experiment: Interaction of plant essential oils with Or83b receptor binding site (3H-tyramine); settings: membranes, FIGS. 16, 18-21
Procedure: (§1) Total RNA is prepared from the head and antenna of wild type Drosophila melanogaster using Trizol Reagent (Invitrogen). They are homogenized in the Trizol using a motor driven teflon pestle and glass homogenizer. RNA is then prepared as per the manufacturer's instructions and includes removal of proteoglycans and polysaccharides by precipitation. The total RNA is reverse transcribed using oligo-dT as a primer and MuLV reverse transcriptase (Applied Biosystems). […] The Sense oligonucleotides contain Not I sites and the antisense oligonucleotides contain Sac II sites. Both restriction sites are indicated by underlined nucleotide. […] For PCR amplification of Or83b, Vent polymerase (New England Biolabs) is used with the following conditions: about 95° C., about 5 min for about 1 cycle; about 95° C., about 30 sec; and about 70° C., about 90 sec for about 40 cycles; and about 70° C., about 10 min for about 1 cycle. For PCR amplification of Or43a, the Failsafe PCR premix selection kit (Epicentre Technologies) is used with the following conditions: about 95° C., about 5 mill for about 1 cycle; about 95° C., about 30 sec; about 60° C., about 30 sec and about 70° C., about 90 sec for about 50 cycles; and about 70° C., about 10 min for about 1 cycle. […] The PCR products are digested with Sac II and Not I, gel purified and ligated into pAC 5.1/N5 His B (Invitrogen). Inserts are sequenced on both strands by automated fluorescent sequencing (Vanderbilt Cancer Center).
(§2) To address whether Or83b receptor and Or43a receptor contain a specific binding site for tyramine, membranes expressing Or83b receptor or Or43a receptor are prepared from cells expressing either receptor, as described above, and used for competitive binding with ^3H-tyramine. The binding assay protocol is exactly as described for cells expressing TyrR, as described above.
(§3) The cells expressing one of the olfactory receptors are used to investigate the interaction of plant essential oils with these receptors and the signaling cascade downstream of each receptor.
(§4) For the binding activity, membranes are prepared from each cell model and used to investigate the interaction of plant essential oil with the receptor binding site.

[2] = tested on: Drosophila melanogaster Or43a olfactory receptor, SEQ ID NO: 4; experiment: Interaction of plant essential oils with Or43a receptor binding site (3H-tyramine); settings: membranes, FIGS. 16, 17, 19-21
Procedure: as §1, §2, §3, §4

[3] = tested on: Or83b and Or43a receptors; experiment: Interaction of plant essential oils with olfactory receptor binding site (membranes, ^3H-tyramine); design: species or system Drosophila melanogaster; settings: membranes incubated with ^3H-tyramine
Procedure: as §3, §4

Or43a receptor = target: T1, Or43a receptor (Drosophila melanogaster, UniProt P81917, L154V); experiment: Intracellular Ca^2+ mobilization in Schneider cells expressing Or43a receptor; type: cell-based; settings: before vs approximately 150 seconds after treatment
T1 construct: His (from vector pAc5.1/V5-His B) (C); expressed in transfected cells
Procedure: Intracellular calcium ion concentrations ([Ca^2+]i) are measured by using the acetoxymethyl (AM) ester of the fluorescent indicator fura-2 (Enan, et al., Biochem. Pharmacol vol 51, 447-454). In this study, cells expressing tyramine receptor are grown under standard conditions. A cell suspension is prepared in assay buffer (140 mM NaCL, 10 mM HEPES, 10 mM glucose, 5 mM KCl, 1 mM CaCl2, 1 mM MgCl2) and cell number adjusted to about 2×10^6 cells per ml. Briefly, about 1.0 ml cell suspension (about 2×10^6 cells) is incubated with about 5 μM Fura 2/AM for about 30 min at about 28° C. After incubation, the cells are pelleted at about 3700 rpm for about 10 sec at room temperature and then resuspended in about 1.5 ml assay buffer. [Ca^2+]i changes are analyzed in spectrofluorometer in the presence and absence of test chemicals. Excitation wave lengths are about 340 nm (generated by Ca^2+-bound fura-2) and about 380 nm (corresponding to Ca^2+-free fura-2). The fluorescence intensity is monitored at an emission wave length of about 510 nm. No absorbance of fluorescence artifacts are observed with any of the compounds used. The ratio of about 340/380 nm is calculated and plotted as a function of time.
Intracellular Ca^2+ levels are measured using the method described above in Example 3.
Changes in intracellular Ca^2+ levels are calculated based on the difference between the 340/380 fluorescence ratios before and after approximately 150 seconds of the treatment.

farm ants = experiment: Repellent effect on farm ants (treated filter paper); type: in vivo; settings: for repellency: in words
Procedure: Adult insect are randomly selected for testing the repellent effect of compositions and are not individually marked. About 5 insects per replicate are used. About 3 replicates are used for each treatment. Untreated control tests are included with only solvent (acetone) application to an equal sized population/replications, held under identical conditions. A filter paper (about 80 cm^2) is treated with the composition (about 100 mg in […] acetone). After about 3 min of air drying, the filter paper is placed in a dish and repellency against insects is performed. Insects are released to the dish, one insect at a time at the far end of the dish. Using one or more stopwatches, the time spent on either the filter paper or the untreated surface of the dish is recorded up to about 300 seconds. Repellency ratio (RR) is calculated as follows: RR=[(time on control surface−time on treated surface)/total time of test].
The repellent effect of various plant essential oils is tested by treating a filter paper with the test oils. After about five minutes at room temperature, the paper is placed in a dish and ants are introduced one at a time. […] Oils are tested alone. Additionally, oils are mixed to form compositions, which are then tested.

[4] = Day 0, time on treated surface of up to about 300 seconds

T1 sequence (P81917 whole entry L154V): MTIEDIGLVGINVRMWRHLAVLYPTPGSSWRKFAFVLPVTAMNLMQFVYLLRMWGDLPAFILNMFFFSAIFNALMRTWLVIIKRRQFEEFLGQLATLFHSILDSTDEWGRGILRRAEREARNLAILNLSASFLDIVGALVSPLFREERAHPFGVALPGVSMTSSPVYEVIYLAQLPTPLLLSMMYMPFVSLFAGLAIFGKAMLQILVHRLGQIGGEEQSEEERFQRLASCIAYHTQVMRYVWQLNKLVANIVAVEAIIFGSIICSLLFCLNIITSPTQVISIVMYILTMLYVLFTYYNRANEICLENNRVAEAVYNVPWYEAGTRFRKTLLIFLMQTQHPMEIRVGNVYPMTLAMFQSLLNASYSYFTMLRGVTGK

| Compound | interaction with the olfactory receptor [1] | interaction with the olfactory receptor [2] | interaction with the olfactory receptors [3] | change in intracellular Ca^2+ levels (340/380 fluorescence ratio) (Or43a receptor) | Repellency %, R % (farm ants; Day 0) [%] | sec. on T surface (farm ants; [4]) [s] | Repellency %, R % (farm ants; Day 1) [%] | sec. on T surface (farm ants; Day 1) [s] | repellency (farm ants) | sec. on T surface (farm ants; Day 0, test up to about 300 seconds) [s] |
| --- | --- | --- | --- | --- | --- | --- | --- | --- | --- | --- |
| C/C=C/c1ccc(OC)cc1 [t-anethole] | interact | interact | interact with the olfactory receptors | – | – | – | – | – | – | – |
| C=C[C@H]1C[N@@]2CC[C@H]1C[C@H]2[C@H](O)c1ccnc2ccc(OC)cc12 [quinine] | – | – | – | calcium mobilization | – | – | – | – | – | – |
| Cc1ccc(C(C)C)cc1 [p-cymene] | interact | interact | interact with the olfactory receptors | calcium mobilization | 42.5 | 86.2 | 10.9 | 133.6 | – | – |
| O=C1C=CC(=O)C=C1 [quinone] | interact | interact | interact with the olfactory receptors | – | – | – | – | – | – | – |
| CC1=CCC(C(C)(C)O)CC1 (stereo not drawn) [α-terpineol] | interact | interact | interact with the olfactory receptors | – | 26.9 | 109.6 | – | – | – | – |
| O=Cc1ccc2c(c1)OCO2 [piperonal] | interact | interact | interact with the olfactory receptors | decreases the intracellular Ca^2+ levels | 37.6 | 93.6 | 16.1 | 125.8 | – | – |
| C=CC(C)(O)CCC=C(C)C (centres unmarked) [linalool] | interact | interact | interact with the olfactory receptors | calcium mobilization | 60.7 | 59.0 | 25.9 | 111.2 | – | – |
| NCc1ccc2c(c1)OCO2 [piperonyl amine] | interact | interact | interact with the olfactory receptors | calcium mobilization | 48.3 | 77.6 | 25.9 | 111.2 | – | – |
| C=C(C)[C@H]1CC=C(C)C(=O)C1 [d-carvone] | – | – | – | calcium mobilization | – | – | – | – | – | – |
| terpinene 900 [listing 1 of 2 here] | interact | interact | – | – | – | – | – | – | – | – |
| OCc1ccc2c(c1)OCO2 [piperonyl alcohol] | interact | interact | interact with the olfactory receptors | calcium mobilization | – | – | – | – | – | – |
| C=C1CCC2(C(C)C)CC12 (centres unmarked) [sabinene] | interact | interact | interact with the olfactory receptors | calcium mobilization | – | – | – | – | display repellency | – |
| l-carvone | – | – | – | calcium mobilization | – | – | – | – | – | – |
| CC(C)[C@]12CC(=O)[C@H](C)[C@H]1C2 [α-thujone] | interact | interact | interact with the olfactory receptors | calcium mobilization | – | – | – | – | display repellency | – |
| C=CC(C)(CCC=C(C)C)OC(=O)c1ccccc1N (centres unmarked) [linalyl anthranilate] | interact | interact | interact with the olfactory receptors | calcium mobilization | 69.2 | 46.2 | 30.7 | 104.6 | – | – |
| lindenol [listing 1 of 2 here] | – | – | interact with the olfactory receptors | calcium mobilization | – | 144.2 | – | – | – | – |
| CCOC(=O)c1ccccc1C(=O)OCC [diethyl phthalate] | interact | interact | interact with the olfactory receptors | – | – | – | – | – | – | – |
| C=C(C)[C@@H]1CC=C(CO)CC1 [perillyl alcohol] | – | – | – | calcium mobilization | – | – | – | – | – | – |
| lindenol [listing 2 of 2 here] | interact | interact | – | – | 04.0 | – | – | – | – | 144.2 |
| terpinene 900 [listing 2 of 2 here] | – | – | interact with the olfactory receptors | calcium mobilization | – | – | – | – | – | – |
